Conditions: in water

Row | solubility (mole fraction) (293.15 K) | solubility (mole fraction) (298.15 K) | solubility (mole fraction) (303.15 K) | solubility (mole fraction) (308.15 K) | solubility (mole fraction) (313.15 K) | solubility (mole fraction) (318.15 K) | SMILES
1 | 0.00117 | 0.00122 | 0.00128 | 0.00131 | 0.00138 | 0.00143 | O=C(O)c1cc(O)c(O)c(O)c1
2 | 0.00212 | 0.00223 | 0.00229 | 0.00238 | 0.00244 | 0.00256 | O=C(O)c1ccc(O)c(O)c1
3 | 0.000376 | 0.000522 | 0.000646 | 0.000794 | 0.000915 | 0.00105 | COc1cc(C(=O)O)cc(OC)c1O
4 | 0.000989 | 0.00117 | 0.00151 | 0.00182 | 0.0021 | 0.00239 | COc1cc(C=O)ccc1O

Reference: BigSolDB 2.1
